{"source": "ChEMBL document CHEMBL3244098", "about": "“Angiotensin II analogues. 13. Role of the hydroxyl group of position 4 tyrosine in pressor activity” (1979)", "note": "Numbered stars: 1 amine (or outer) side, 2 acyl side, 3 side chain; on linkers, the order of the positions; unused ones are H or OH. Square brackets hold non-standard residues; d marks the D form. Peptide text beside a SMILES is read from it. Phe(4-NO2) = N[C@@H](Cc1ccc([N+](=O)[O-])cc1)C(=O)O; Tyr(3,5-I2) = N[C@@H](Cc1cc(I)c(O)c(I)c1)C(=O)O; X3 = N#[N+]c1ccc(C[C@@H](N[*:1])C(=O)[*:2])cc1; X2 = Nc1c(I)cc(C[C@@H](N[*:1])C(=O)[*:2])cc1I; X4 = Cc1cc(C[C@@H](N[*:1])C(=O)[*:2])cc(C)c1O; X1 = Cc1cc(C[C@H](N[*:1])C(=O)[*:2])cc(C)c1O; Tyr(3-I) = N[C@@H](Cc1ccc(O)c(I)c1)C(=O)O; Phe(4-NH2) = Nc1ccc(C[C@H](N)C(=O)O)cc1; Sar = CNCC(=O)O"}
{"species_on_record": "Rattus norvegicus", "assay": "Pressor activity in nephrectomized, pentolinium treated rat relative to [Asn1,Val5]AII", "format": "functional", "units": {"Activity": "%"}}
{"smiles": "CC[C@H](C)[C@H](NC(=O)[C@H](Cc1ccccc1)NC(=O)[C@@H](NC(=O)[C@H](CCCNC(=N)N)NC(=O)[C@@H](N)CC(=O)O)C(C)C)C(=O)N[C@@H](Cc1cnc[nH]1)C(=O)N1CCC[C@H]1C(=O)N[C@@H](Cc1ccccc1)C(=O)O", "note": "(H-DRVFIHPF-OH)", "Activity": 10}
{"smiles": "CC[C@H](C)[C@H](NC(=O)[C@H](Cc1ccc(N)cc1)NC(=O)[C@@H](NC(=O)[C@H](CCCNC(=N)N)NC(=O)[C@@H](N)CC(N)=O)C(C)C)C(=O)N[C@@H](Cc1cnc[nH]1)C(=O)N1CCC[C@H]1C(=O)N[C@@H](Cc1ccccc1)C(=O)O", "note": "(H-NRV[Phe(4-NH2)]IHPF-OH)", "Activity": 24}
{"smiles": "CC[C@H](C)[C@H](NC(=O)[C@H](Cc1ccc([N+](=O)[O-])cc1)NC(=O)[C@@H](NC(=O)[C@H](CCCNC(=N)N)NC(=O)[C@@H](N)CC(N)=O)C(C)C)C(=O)N[C@@H](Cc1cnc[nH]1)C(=O)N1CCC[C@H]1C(=O)N[C@@H](Cc1ccccc1)C(=O)O", "note": "(H-NRV[Phe(4-NO2)]IHPF-OH)", "Activity": 0.1}
{"smiles": "CC(C)[C@H](NC(=O)[C@H](CCCNC(=N)N)NC(=O)[C@@H](N)CC(N)=O)C(=O)N[C@@H](Cc1cc(I)c(O)c(I)c1)C(=O)N[C@H](C(=O)N[C@@H](Cc1cnc[nH]1)C(=O)N1CCC[C@H]1C(=O)N[C@@H](Cc1ccccc1)C(=O)O)C(C)C", "note": "(H-NRV[Tyr(3,5-I2)]VHPF-OH)", "Activity": 13}
{"smiles": "CC(C)[C@H](NC(=O)[C@H](CCCNC(=N)N)NC(=O)[C@@H](N)CC(N)=O)C(=O)N[C@@H](Cc1ccc(O)c(I)c1)C(=O)N[C@H](C(=O)N[C@@H](Cc1cnc[nH]1)C(=O)N1CCC[C@H]1C(=O)N[C@@H](Cc1ccccc1)C(=O)O)C(C)C", "note": "(H-NRV[Tyr(3-I)]VHPF-OH)", "Activity": 33}
{"smiles": "CC[C@H](C)[C@H](NC(=O)[C@H](Cc1cc(C)c(O)c(C)c1)NC(=O)[C@@H](NC(=O)[C@H](CCCNC(=N)N)NC(=O)[C@@H](N)CC(N)=O)C(C)C)C(=O)N[C@@H](Cc1cnc[nH]1)C(=O)N1CCC[C@H]1C(=O)N[C@@H](Cc1ccccc1)C(=O)O", "note": "(H-NRV[X1]IHPF-OH)", "Activity": 2.2}
{"smiles": "CC[C@H](C)[C@H](NC(=O)[C@@H](Cc1cc(C)c(O)c(C)c1)NC(=O)[C@@H](NC(=O)[C@H](CCCNC(=N)N)NC(=O)[C@@H](N)CC(N)=O)C(C)C)C(=O)N[C@@H](Cc1cnc[nH]1)C(=O)N1CCC[C@H]1C(=O)N[C@@H](Cc1ccccc1)C(=O)O", "note": "(H-NRV[X4]IHPF-OH)", "Activity": 1.4}
{"molecular_target": "T1, Type-1 angiotensin II receptor (Oryctolagus cuniculus) (UniProt P34976)", "T1 sequence (whole entry)": "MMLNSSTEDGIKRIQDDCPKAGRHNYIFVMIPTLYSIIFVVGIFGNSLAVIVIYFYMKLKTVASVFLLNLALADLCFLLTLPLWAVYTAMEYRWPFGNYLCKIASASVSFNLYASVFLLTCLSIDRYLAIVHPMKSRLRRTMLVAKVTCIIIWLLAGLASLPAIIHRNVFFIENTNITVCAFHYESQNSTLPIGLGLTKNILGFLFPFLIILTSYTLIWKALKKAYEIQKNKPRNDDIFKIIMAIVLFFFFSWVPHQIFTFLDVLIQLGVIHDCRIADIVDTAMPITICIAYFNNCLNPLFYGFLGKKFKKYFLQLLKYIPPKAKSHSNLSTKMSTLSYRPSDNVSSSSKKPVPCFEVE", "assay": "Binding affinity to angiotensin 2 receptor in rabbit aorta", "units": {"Activity": "%"}}
{"smiles": "CNCC(=O)N[C@@H](CCCNC(=N)N)C(=O)N[C@H](C(=O)N[C@H](Cc1ccc(N)cc1)C(=O)N[C@H](C(=O)N[C@@H](Cc1cnc[nH]1)C(=O)N1CCC[C@H]1C(=O)N[C@@H](Cc1ccccc1)C(=O)O)C(C)C)C(C)C", "Activity": 15}
{"smiles": "CNCC(=O)N[C@@H](CCCNC(=N)N)C(=O)N[C@H](C(=O)N[C@H](Cc1ccc(N=[N+]=[N-])cc1)C(=O)N[C@H](C(=O)N[C@@H](Cc1cnc[nH]1)C(=O)N1CCC[C@H]1C(=O)N[C@@H](Cc1ccccc1)C(=O)O)C(C)C)C(C)C", "Activity": 0.26}
{"smiles": "CNCC(=O)N[C@@H](CCCNC(=N)N)C(=O)N[C@H](C(=O)N[C@H](Cc1cc(I)c(N)c(I)c1)C(=O)N[C@H](C(=O)N[C@@H](Cc1cnc[nH]1)C(=O)N1CCC[C@H]1C(=O)N[C@@H](Cc1ccccc1)C(=O)O)C(C)C)C(C)C", "note": "(H-[Sar]RV[X2]VHPF-OH)", "Activity": 2.7}
{"smiles": "CNCC(=O)N[C@@H](CCCNC(=N)N)C(=O)N[C@H](C(=O)N[C@H](Cc1ccc([N+]#N)cc1)C(=O)N[C@H](C(=O)N[C@@H](Cc1cnc[nH]1)C(=O)N1CCC[C@H]1C(=O)N[C@@H](Cc1ccccc1)C(=O)O)C(C)C)C(C)C", "note": "(H-[Sar]RV[X3]VHPF-OH)", "Activity": 0.66}
